Entries after “also recorded” stand apart in the source; their conditions may differ.
Tests used:
[1] = system: hippocampal neurons overexpressing CCNY-WT-EGFP; assay: Confocal imaging of CCNY-WT-EGFP membrane association in neurons treated with palmitoylation blocker; assay type: cell-based, rat; conditions: 2-bromopalmitate 100 μM, 4 hours, hippocampal neurons (FIG. 1D)
Description: Specifically, (A) is a confocal single-plane image of hippocampal neurons overexpressing EGFP-tagged CCNY-WT. […] The scale bars are 20 μm (top) and 5 μm (bottom). […] The scale bar is 20 μm.
HEK 293T cells were grown in DMEM (Gibco) supplemented with 10% fetal bovine serum. Hippocampal neuronal cultures were prepared from E18 Sprague-Dawley (SD) rat embryos. The hippocampal neurons were grown on poly-D-lysine ([…]; Sigma)-coated 18 mm glass coverslips and maintained for 10 to 21 days in vitro (DIV) in 12-well plates containing B27 and Glutamax-supplemented Neurobasal medium (Gibco) at 37° C. in an incubator equilibrated with 5% CO2 (Cho et al., 2015). The culture contains glial cells that were grown up to 70% to 80% confluency, where further growth was inhibited by treatment of 5-fluoro-2′-deoxyuridine (FUdR) ([…]; Sigma).
Neurons were transfected at 10 to 15 DIV using Lipofectamine 2000 (Invitrogen) for 1 to 6 days, and then experiments were performed at 14 to 17 DIV. All experiments handling animals and their embryos were performed in accordance with the guidelines and regulations of the Korea Institute of Science and Technology (KIST). All experimental protocols were approved by the KIST Institutional Animal Care and Use Committee (IACUC; approval number 2018-048). […]

CCNY = assay: Acyl-biotinyl exchange (ABE) assay of CCNY palmitoylation in HEK293T cells; assay type: cell-based; conditions: 4 hours prior to ABE assay, HEK293T cells (FIG. 3B)
Description: (§1) All images are single-plane images. […] The scale bars are 5 (B and C) show the results of an acyl-biotinyl exchange (ABE) assay. CCNY-WT-EGFP or CCNY-Mut(C7, 8S)-EGFP were overexpressed in HEK293T cells, and the cells were subsequently treated with a palmitoylation blocker, 2-bromopalmitate (2-BP, 30 μM or 100 μM), for 4 hours prior to the ABE assay.
(§2) The ABE assay was performed as previously described (Wan et al., 2007) with minor modifications. Briefly, HEK293T cells were transfected with CCNY-WT-EGFP, CCNY-Mut(C7,8S)-EGFP, or PSD-95-WT-EGFP. PSD-95-WT-EGFP was transfected with or without DHHC2-HA. Twenty four hours after transfection, the cells were lysed in lysis buffer (150 mM NaCl, 50 mM Tris, 5 mM EDTA, protease inhibitor cocktail, 1 mM PMSF, pH 7.4) with 1.7% Triton X-100 and 10 mM N-ethylmaleimide (NEM) for 1 hour at 4° C. The cell lysates were centrifuged at 250 g for 5 minutes at 4° C., and the resultant supernatants were applied to the chloroform-methanol (CM) precipitation methodology. […] The eluted samples in loading buffer (50 mM Tris-HCl, pH 6.8, 5% β-mercaptoethanol, 2% SDS, 0.01% bromophenol blue) were then boiled for 10 minutes at 95° C., applied to SDS-PAGE, and analyzed by immunoreactions with anti-CCNY (Proteintech Group), anti-PSD-95 (Thermo Scientific) and anti-GFP (Roche). […]

PSD-95 = assay: Acyl-biotinyl exchange (ABE) assay of PSD-95 palmitoylation (positive control) in HEK293T cells; assay type: cell-based; conditions: in the presence of 2-bromopalmitate, HEK293T cells (FIG. 3C)
Description: as §1, §2

## CCCCCCCCCCCCCCC(Br)C(=O)O (stereo not shown) [2-bromopalmitate]
[1]
  membrane-associated localization of CCNY-WT-EGFP on the neuronal cell surface: altered
CCNY; 2-bromopalmitate 30 μM
  palmitoylation of CCNY-WT-EGFP (ABE assay): no palmitoylation was detected; also recorded: blocked
CCNY; 2-bromopalmitate 100 μM
  palmitoylation of CCNY-WT-EGFP (ABE assay): no palmitoylation was detected; also recorded: blocked
PSD-95
  palmitoylation of PSD-95 (ABE assay): inhibited

Source: patent US11161888B2, “Method for regulating targeting of Cyclin Y (CCNY) protein to synapses” (KOREA INSTITUTE OF SCIENCE AND TECHNOLOGY, priority 2018, dated 2021)
